{"source": "patent US12312359B2", "about": "(Vitae Pharmaceuticals, LLC, priority 2016, dated 2025)", "key": {"[1]": {"settings": "from 5 to 95% RH", "description": "Moisture sorption/desorption data were collected on a VTI SGA-100 Vapor Sorption Analyzer. NaCl and PVP were used as calibration standards. Samples were not dried prior to analysis. Sorption and desorption data were collected over a range from 5% to 95% RH at 10% RH increments under a nitrogen purge. The equilibrium criterion used for analysis was less than 0.0100% weight change in 5 minutes with a maximum equilibration time of 3 hours. Data were not corrected for the initial moisture content of the samples."}, "[2]": {"assay": "Physical stability analysis of sesquifumaric acid salt forms (drying, heating)", "assay_type": "physicochemical"}, "[3]": {"assay": "Water activity analysis (slurries) of sesquifumaric acid salt forms", "assay_type": "physicochemical", "settings": "for Form conversion in water activity slurry: 0.22 aw (and up); for Result (solid form after water activity slurry): ambient, 7 days"}, "[4]": {"assay": "Concentration in water to achieve pH=7", "assay_type": "physicochemical"}}, "data": [{"smiles": "CC(C)N(C(=O)c1cc(F)ccc1Oc1cncnc1N1CC2(CCN(CC3CCC(NS(C)(=O)=O)CC3)CC2)C1)C(C)C.CC(C)N(C(=O)c1cc(F)ccc1Oc1cncnc1N1CC2(CCN(CC3CCC(NS(C)(=O)=O)CC3)CC2)C1)C(C)C.O.O.O=C(O)/C=C/C(=O)O.O=C(O)/C=C/C(=O)O.O=C(O)/C=C/C(=O)O", "note": "(stereo not drawn) [Form A, 5-fluoro-N,N-diisopropyl-2-((4-(7-(((1r,4r)-4-(methylsulfonamido)cyclohexyl)methyl)-2,7-diazaspiro[3.5]nonan-2-yl)pyrimidin-5-yl)oxy)benzamide sesquifumaric acid salt monohydrate]", "values": [{"measurement": "DVS weight gain", "setting": "[1]", "value": 0.92, "unit": "%"}, {"measurement": "Observation (weight change)", "setting": "[2]; 70° C. vacuum 3 days", "value": "no weight change"}, {"measurement": "Result (solid form after physical stability stress)", "setting": "[2]; 70° C. vacuum 3 days", "value": "Form A + peaks"}, {"measurement": "Result (solid form after physical stability stress)", "setting": "[2]; 95° C., under N2, 2 days", "value": "Form A"}, {"measurement": "Observation (LOD)", "setting": "[2]; 105° C. 3 days", "value": 20, "unit": "% LOD"}, {"measurement": "Result (solid form after physical stability stress)", "setting": "[2]; 105° C. 3 days", "value": "Form A"}, {"measurement": "Observation (weight change)", "setting": "[2]; ambient vacuum 3 days", "value": "no weight change"}, {"measurement": "Result (solid form after physical stability stress)", "setting": "[2]; ambient vacuum 3 days", "value": "Form A"}, {"measurement": "Form change in variable temperature (VT)-XRPD", "setting": "[2]; heating, XRPD pattern at 165° C.", "value": "No form change observed"}, {"measurement": "Changes upon vacuum drying or heating", "setting": "[2]; vacuum drying or heating", "value": "No changes"}]}, {"smiles": "CC(C)N(C(=O)c1cc(F)ccc1Oc1cncnc1N1CC2(CCN(C[C@H]3CC[C@H](NS(C)(=O)=O)CC3)CC2)C1)C(C)C.CC(C)N(C(=O)c1cc(F)ccc1Oc1cncnc1N1CC2(CCN(C[C@H]3CC[C@H](NS(C)(=O)=O)CC3)CC2)C1)C(C)C.O=C(O)/C=C/C(=O)O.O=C(O)/C=C/C(=O)O.O=C(O)/C=C/C(=O)O", "note": "[Form B, 5-fluoro-N,N-diisopropyl-2-((4-(7-(((1r,4r)-4-(methylsulfonamido)cyclohexyl)methyl)-2,7-diazaspiro[3.5]nonan-2-yl)pyrimidin-5-yl)oxy)benzamide sesquifumaric acid salt]", "values": [{"measurement": "Form conversion in water activity slurry", "setting": "[3]", "value": "Converted to Form A"}, {"measurement": "Form change after 45° C. vacuum oven", "setting": "[2]; 45° C. vacuum oven", "value": "converted to Form D"}]}, {"smiles": "CCN(C(=O)c1cc(F)ccc1Oc1cncnc1N1CC2(CCN(CC3CCC(NS(=O)(=O)CC)CC3)CC2)C1)C(C)C.CS(=O)(=O)O.CS(=O)(=O)O", "note": "(stereo not drawn) [Example 256, N-Ethyl-2-((4-(7-(((1r,4r)-4-(ethylsulfonamido)cyclohexyl)methyl)-2,7-diazaspiro[3.5]nonan-2-yl)pyrimidin-5-yl)oxy)-5-fluoro-N-isopropylbenzamide Bis-Methanesulfonic Acid Salt]", "values": [{"measurement": "Concentration in water to achieve pH=7", "setting": "[4]", "value": 261, "unit": "mg/mL"}]}, {"smiles": "CC(C)N(C(=O)c1cc(F)ccc1Oc1cncnc1N1CC2(CCN(C[C@H]3CC[C@H](NS(C)(=O)=O)CC3)CC2)C1)C(C)C.CC(C)N(C(=O)c1cc(F)ccc1Oc1cncnc1N1CC2(CCN(C[C@H]3CC[C@H](NS(C)(=O)=O)CC3)CC2)C1)C(C)C.O=C(O)/C=C/C(=O)O.O=C(O)/C=C/C(=O)O.O=C(O)/C=C/C(=O)O", "note": "[Form D, 5-fluoro-N,N-diisopropyl-2-((4-(7-(((1r,4r)-4-(methylsulfonamido)cyclohexyl)methyl)-2,7-diazaspiro[3.5]nonan-2-yl)pyrimidin-5-yl)oxy)benzamide sesquifumaric acid salt]", "values": [{"measurement": "Form conversion in water activity slurry", "setting": "[3]", "value": "Converted to Form A"}, {"measurement": "Result (solid form after physical stability stress)", "setting": "[2]; 75% RH, 2 days", "value": "Form D"}]}, {"smiles": "CCN(C(=O)c1cc(F)ccc1Oc1cncnc1N1CC2(CCN(CC3CCC(NS(=O)(=O)CC)CC3)CC2)C1)C(C)C.CCN(C(=O)c1cc(F)ccc1Oc1cncnc1N1CC2(CCN(CC3CCC(NS(=O)(=O)CC)CC3)CC2)C1)C(C)C.O=C(O)/C=C/C(=O)O.O=C(O)/C=C/C(=O)O.O=C(O)/C=C/C(=O)O", "note": "(stereo not drawn) [Example 255, N-Ethyl-2-((4-(7-(((1r,4r)-4-(ethylsulfonamido)cyclohexyl)methyl)-2,7-diazaspiro[3.5]nonan-2-yl)pyrimidin-5-yl)oxy)-5-fluoro-N-isopropylbenzamide Sesquifumaric Acid Salt]", "values": [{"measurement": "Concentration in water to achieve pH=7", "setting": "[4]", "value": 224.7, "unit": "mg/mL"}]}, {"smiles": "CCN(C(=O)c1cc(F)ccc1Oc1cncnc1N1CC2(CCN(CC3CCC(NS(=O)(=O)CC)CC3)CC2)C1)C(C)C.Cl.Cl", "note": "(stereo not drawn) [Example 257, N-Ethyl-2-((4-(7-(((1r,4r)-4-(ethylsulfonamido)cyclohexyl)methyl)-2,7-diazaspiro[3.5]nonan-2-yl)pyrimidin-5-yl)oxy)-5-fluoro-N-isopropylbenzamide Bis-Hydrochloric Acid Salt]", "values": [{"measurement": "Concentration in water to achieve pH=7", "setting": "[4]", "value": 317.6, "unit": "mg/mL"}]}, {"smiles": "CC(C)N(C(=O)c1cc(F)ccc1Oc1cncnc1N1CC2(CCN(CC3CCC(NS(C)(=O)=O)CC3)CC2)C1)C(C)C.CC(C)N(C(=O)c1cc(F)ccc1Oc1cncnc1N1CC2(CCN(CC3CCC(NS(C)(=O)=O)CC3)CC2)C1)C(C)C.O=C(O)/C=C/C(=O)O.O=C(O)/C=C/C(=O)O.O=C(O)/C=C/C(=O)O", "note": "(stereo not drawn)", "values": [{"measurement": "Result (solid form after water activity slurry)", "setting": "[3]; H2O/ACN, water activity 0.38 (2 vol % H2O)", "value": "Form A"}, {"measurement": "Result (solid form after water activity slurry)", "setting": "[3]; H2O/ACN, water activity 0.60 (4 vol % H2O)", "value": "Form A"}, {"measurement": "Result (solid form after water activity slurry)", "setting": "[3]; H2O/IPA, water activity 0.50 (6 vol % H2O)", "value": "Form A"}, {"measurement": "Result (solid form after water activity slurry)", "setting": "[3]; H2O/IPA, water activity 0.70 (11 vol % H2O)", "value": "Form A"}, {"measurement": "Result (solid form after water activity slurry)", "setting": "[3]; H2O/IPA, water activity 0.96 (50 vol % H2O)", "value": "Form A"}, {"measurement": "Result (solid form after water activity slurry)", "setting": "[3]; H2O/acetone, water activity 0.22 (1 vol % H2O)", "value": "Form A"}, {"measurement": "Result (solid form after water activity slurry)", "setting": "[3]; H2O/acetone, water activity 0.44 (3 vol % H2O)", "value": "Form A"}, {"measurement": "Result (solid form after water activity slurry)", "setting": "[3]; H2O/acetone, water activity 0.80 (18 vol % H2O)", "value": "Form A"}, {"measurement": "Result (solid form after water activity slurry)", "setting": "[3]; H2O/acetone, water activity 0.91 (50 vol % H2O)", "value": "Form A"}]}, {"smiles": "CCN(C(=O)c1cc(F)ccc1Oc1cncnc1N1CC2(CCN(CC3CCC(NS(=O)(=O)CC)CC3)CC2)C1)C(C)C", "note": "(stereo not drawn) [Example 254, N-Ethyl-2-((4-(7-(((1r,4r)-4-(ethylsulfonamido)cyclohexyl)methyl)-2,7-diazaspiro[3.5]nonan-2-yl)pyrimidin-5-yl)oxy)-5-fluoro-N-isopropylbenzamide]", "values": [{"measurement": "Concentration in water to achieve pH=7", "setting": "[4]", "value": 7.6, "unit": "mg/mL"}]}]}
